# According to patent US7790895B2, “Quinoline derivatives as potassium ion channel openers” (Janssen Pharmaceutica NV, priority 2005, dated 2010):
# Biological target: T1, KATP channels (Homo sapiens, UniProt O60706)
# T1 construct: TE671 human medulloblastoma cells were obtained from ATCC; host or cells: TE671 human medulloblastoma cells
# Test: Potassium Channel Assay (FLIPR membrane potential, KATP channel opening)
# Assay type: cell-based
# Conditions: TE671 human medulloblastoma cells, Membrane Potential Assay Dye, room temperature
# Description: TE671 human medulloblastoma cells were obtained from ATCC and grown in Dulbecco's modified Eagle's medium (DMEM) supplemented with 10% fetal bovine serum, 100 U/ml penicillin and 100 U/ml streptomycine.
# The day before testing, the cells were plated in black 96-well plates at 50K/well. On the day of testing, the growth media was removed, then 100 μl of FLIPR buffer (20 mM HEPES, 120 mM NaCl, 2 mM KCl, 2 mM CaCl2, 1 mM MgCl2, 5 mM Glucose) and 100 μl of Membrane Potential Assay Dye (Molecular Devices) dissolved in FLIPR buffer were added to each well. The cells were incubated at room temperature for 15 to 30 min.
# The effect of test compounds on KATP channels were evaluated on a fluorometric imaging plate reader (FLIPR, Molecular Devices) at room temperature. After a baseline period, 50 μl of 5× stock solution of test compound prepared in FLIPR buffer was added and fluorescence change was monitored for 3 minutes. After this reading, glyburide, a KATP channel blocker, was added to a final concentration of 5 μM to check the specificity of the test compound as a KATP channel opener. Hyperpolarization resulting from KATP channel opening was observed as a decrease in fluorescence intensity.
# T1 sequence (O60706 1-1549 isoform O60706-2): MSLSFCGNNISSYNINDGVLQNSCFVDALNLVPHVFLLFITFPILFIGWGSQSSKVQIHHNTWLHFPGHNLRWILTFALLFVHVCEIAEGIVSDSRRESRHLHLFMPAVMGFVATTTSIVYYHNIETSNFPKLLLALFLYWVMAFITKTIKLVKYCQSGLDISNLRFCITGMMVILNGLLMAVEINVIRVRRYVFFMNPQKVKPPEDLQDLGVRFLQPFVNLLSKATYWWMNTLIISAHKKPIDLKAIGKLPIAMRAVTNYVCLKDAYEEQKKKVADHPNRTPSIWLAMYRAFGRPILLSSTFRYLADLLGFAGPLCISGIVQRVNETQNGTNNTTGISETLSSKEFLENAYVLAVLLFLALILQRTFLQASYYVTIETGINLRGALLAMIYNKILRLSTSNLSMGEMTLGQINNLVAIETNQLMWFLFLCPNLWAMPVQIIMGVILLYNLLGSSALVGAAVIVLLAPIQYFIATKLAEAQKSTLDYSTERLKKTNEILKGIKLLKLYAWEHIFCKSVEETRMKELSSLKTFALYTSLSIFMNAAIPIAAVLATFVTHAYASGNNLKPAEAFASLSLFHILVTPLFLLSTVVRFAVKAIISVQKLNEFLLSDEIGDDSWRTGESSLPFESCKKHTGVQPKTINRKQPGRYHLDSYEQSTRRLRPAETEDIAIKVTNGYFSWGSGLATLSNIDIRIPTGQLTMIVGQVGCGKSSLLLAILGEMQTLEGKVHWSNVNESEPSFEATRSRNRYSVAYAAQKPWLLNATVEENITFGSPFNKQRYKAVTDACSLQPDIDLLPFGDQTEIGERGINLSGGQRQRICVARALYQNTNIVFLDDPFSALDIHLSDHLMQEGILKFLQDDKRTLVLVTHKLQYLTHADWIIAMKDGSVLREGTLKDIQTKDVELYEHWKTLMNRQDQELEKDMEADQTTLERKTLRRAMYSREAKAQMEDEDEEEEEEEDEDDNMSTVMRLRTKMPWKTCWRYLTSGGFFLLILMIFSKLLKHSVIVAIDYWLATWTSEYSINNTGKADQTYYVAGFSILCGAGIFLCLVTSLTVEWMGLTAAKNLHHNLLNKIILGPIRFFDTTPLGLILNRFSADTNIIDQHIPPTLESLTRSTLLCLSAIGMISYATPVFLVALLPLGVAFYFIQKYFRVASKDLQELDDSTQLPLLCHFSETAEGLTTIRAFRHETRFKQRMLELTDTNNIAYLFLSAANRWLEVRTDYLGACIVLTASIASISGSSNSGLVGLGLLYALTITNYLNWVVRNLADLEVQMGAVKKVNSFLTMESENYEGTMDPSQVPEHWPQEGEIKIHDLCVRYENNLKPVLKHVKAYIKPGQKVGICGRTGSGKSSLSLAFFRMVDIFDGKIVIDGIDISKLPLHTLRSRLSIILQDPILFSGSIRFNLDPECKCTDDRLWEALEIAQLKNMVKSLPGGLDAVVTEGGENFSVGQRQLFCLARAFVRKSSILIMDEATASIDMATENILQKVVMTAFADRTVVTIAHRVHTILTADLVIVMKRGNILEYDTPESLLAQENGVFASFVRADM
# T1 sequence (Q14654 whole entry partner): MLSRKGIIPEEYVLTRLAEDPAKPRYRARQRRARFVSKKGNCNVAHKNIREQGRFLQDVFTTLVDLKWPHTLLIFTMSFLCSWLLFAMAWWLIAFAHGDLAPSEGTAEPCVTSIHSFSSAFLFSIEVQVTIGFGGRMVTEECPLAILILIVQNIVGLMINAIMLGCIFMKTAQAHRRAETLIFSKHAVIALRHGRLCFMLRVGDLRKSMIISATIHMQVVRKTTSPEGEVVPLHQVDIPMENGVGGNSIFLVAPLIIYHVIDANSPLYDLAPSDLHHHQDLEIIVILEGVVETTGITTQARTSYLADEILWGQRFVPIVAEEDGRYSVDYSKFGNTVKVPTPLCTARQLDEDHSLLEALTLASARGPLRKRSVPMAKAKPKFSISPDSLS
EC50 [µM],% Stimulation (test concentration not given) [%],Compound
26.8,,"CC(O)c1cnccc1C(=O)c1ccccc1 (stereo not shown) [Compound 59, [3-(1-Hydroxy-ethyl)-pyridin-4-yl]-phenyl-methanone]"
19.4,,"N#Cc1cccc(-c2ccncc2C(O)c2ccc(F)cc2)c1 (stereo not shown) [Compound 20, 3-{3-[(4-Fluoro-phenyl)-hydroxy-methyl]-pyridin-4-yl}-benzonitrile]"
> 30,,"N#Cc1cccc(-c2ccncc2C=O)c1 [Compound 51, 3-(3-Formyl-pyridin-4-yl)-benzonitrile]"
10.7,,"CC(C)(C)c1ccc(C(O)c2cnccc2-c2cccc(C#N)c2)cc1 (stereo not shown) [Compound 27, 3-{3-[(4-tert-Butyl-phenyl)-hydroxy-methyl]-pyridin-4-yl}-benzonitrile]"
> 30,,"CCOC(=O)c1cnc2cc(C(F)(F)F)ccc2c1-c1ccccc1 [Compound 6, 4-Phenyl-7-trifluoromethyl-quinoline-3-carboxylic acid ethyl ester]"
> 30,,"CCOC(=O)c1cnc2cc(C(F)(F)F)ccc2c1-c1cc(C(F)(F)F)ccc1F [Compound 8, 4-(2-Fluoro-5-trifluoromethyl-phenyl)-7-trifluoromethyl-quinoline-3-carboxylic acid ethyl ester]"
> 30,,"N#Cc1cccc(-c2ccncc2CO)c1 [Compound 50, 3-(3-Hydroxymethyl-pyridin-4-yl)-benzonitrile]"
17.4,,"CN(C)c1ccc(C(O)c2cnccc2C(=O)c2ccccc2)cc1 (stereo not shown) [Compound 44, {3-[(4-Dimethylamino-phenyl)-hydroxy-methyl]-pyridin-4-yl}-phenyl-methanone]"
> 30,,"CCOC(=O)c1ccc(-c2c(C(=O)OCC)cnc3cc(C(F)(F)F)ccc23)cc1 [Compound 4, 4-(4-Ethoxycarbonyl-phenyl)-7-trifluoromethyl-quinoline-3-carboxylic acid ethyl ester]"
> 30,0,"CCOC(=O)c1cnc2cc(C(F)(F)F)ccc2c1-c1ccc(C)c(C)c1 [Compound 13, 4-(3,4-Dimethyl-phenyl)-7-trifluoromethyl-quinoline-3-carboxylic acid ethyl ester]"
4.56,,"CCOC(=O)c1cnc2cc(C(F)(F)F)ccc2c1-c1cc(CO)ccc1OC [Compound 14, 4-(5-Hydroxymethyl-2-methoxy-phenyl)-7-trifluoromethyl-quinoline-3-carboxylic acid ethyl ester]"
11.6,,"COc1ccc(C(O)c2cnccc2C(=O)c2ccccc2)cc1F (stereo not shown) [Compound 45, {3-[(3-Fluoro-4-methoxy-phenyl)-hydroxy-methyl]-pyridin-4-yl}-phenyl-methanone]"
10.2,,"COc1ccccc1C(O)c1cnccc1-c1cccc(C#N)c1 (stereo not shown) [Compound 28, 3-{3-[Hydroxy-(2-methoxy-phenyl)-methyl]-pyridin-4-yl}-benzonitrile]"
8.19,,"N#Cc1cccc(C2OCc3cnccc32)c1 (stereo not shown) [Compound 66, 3-(1,3-Dihydro-furo[3,4-c]pyridin-1-yl)-benzonitrile]"
14.5,,"N#Cc1cccc(-c2ccncc2C(O)c2ccc(Cl)c(Cl)c2)c1 (stereo not shown) [Compound 24, 3-{3-[(3,4-Dichloro-phenyl)-hydroxy-methyl]-pyridin-4-yl}-benzonitrile]"
17.4,,"O=C(c1ccccc1)c1ccncc1C(O)c1ccccc1 (stereo not shown) [Compound 43, [3-(Hydroxy-phenyl-methyl)-pyridin-4-yl]-phenyl-methanone]"
9.59,,"COc1ccc(C(O)c2cnccc2-c2cccc(C#N)c2)cc1F (stereo not shown) [Compound 37, 3-{3-[(3-Fluoro-4-methoxy-phenyl)-hydroxy-methyl]-pyridin-4-yl}-benzonitrile]"
> 30,,"CCOC(=O)c1cnc2cc(C(F)(F)F)ccc2c1-c1cccc(C#N)c1 [Compound 1, 4-(3-Cyano-phenyl)-7-trifluoromethyl-quinoline-3-carboxylic acid ethyl ester]"
